According to BigSolDB 2.1:

O=C(NC(Cc1cc(=O)[nH]c2ccccc12)C(=O)O)c1ccc(Cl)cc1 (stereo not given)
Details	solubility (mole fraction)
in PEG-400, 288.15 K	0.00236
in PEG-400, 293.15 K	0.0025
in PEG-400, 298.15 K	0.00264
in PEG-400, 303.15 K	0.00278
in PEG-400, 308.15 K	0.00292

solubility (mole fraction)
Details	288.15 K	293.15 K	298.15 K	303.15 K	308.15 K
in acetone	1.01e-05	1.2e-05	1.43e-05	1.7e-05	2e-05
in acetonitrile	8.25e-07	1.07e-06	1.38e-06	1.74e-06	2.2e-06
in ethanol	7.58e-05	8.61e-05	9.68e-05	0.000109	0.000122
in ethyl acetate	1.91e-06	2.21e-06	2.56e-06	2.94e-06	3.38e-06
in glycerin	2.97e-06	3.45e-06	4.02e-06	4.63e-06	5.35e-06
in isopropanol	3.82e-05	4.75e-05	5.83e-05	7.17e-05	8.79e-05
in methanol	7.56e-05	8.55e-05	9.59e-05	0.000107	0.00012
in n-butanol	5.47e-05	6.51e-05	7.73e-05	9.12e-05	0.000107
in n-propanol	6.1e-05	7.1e-05	8.24e-05	9.55e-05	0.000109
in propylene glycol	0.000204	0.000224	0.000246	0.000268	0.000291
in water	5.17e-07	6.74e-07	8.69e-07	1.12e-06	1.43e-06
